Data published in US12303483B2, “Lipase degradation resistant surfactants for use in large molecule therapeutic formulations” (Janssen Biotech, Inc., priority 2018, dated 2025).

Legend:
Type in all cases: physicochemical
[1] = tested on: mAbs A, B and C (50 mg/mL formulations); assay: SEC percent monomer of mAb formulations with surfactant after shaking or thermal stress (Example 1); settings: 0.01% (w/v) surfactant; 3-month storage at 25° C. followed by shaking stress; compared with polysorbate (PS20 and PS80) formulations; Student's t-test p<0.01
Experimental: (§1) Size Exclusion Chromatography (SEC). The soluble aggregation quality attribute of the investigated formulations was evaluated using size exclusion ultra performance liquid chromatography (SE-UPLC). To prepare samples for analysis, collected formulations from each condition (time zero (T0) control, shaking stress, and thermal stress followed by shaking stress) were diluted with formulation buffer of each respective mAb from 50 mg/mL to 2 mg/mL. SEC runs were conducted with a 5 μL injection of sample into an Acquity UPLC 200 Å, 1.7 μm column using a 0.2 M sodium phosphate mobile phase. Eluting peaks were integrated to determine monomer content based on percent area of the main peak relative to sum of all peak areas.
To assess the protective effects of different surfactants in mAb formulations, polysorbate and PFA was spiked into formulations for three different mAbs. mAbs A and B are bispecific antibodies, and mAb C is an IgG4 monoclonal antibody. The formulations for mAbs A and B comprised 10 mM histidine, 8.5% (w/v) sucrose, at pH 5.7. The mAb C formulation consisted of 10 mM sodium phosphate, 8.5% (w/v) sucrose, 10 ppm EDTA, at pH 7.1. […] Each formulation condition was evaluated with vials in triplicate. The impact of the surfactant type and concentration was assessed using size exclusion chromatography (SEC).

[2] = tested on: lipases immobilized on beads; assay: Surfactant stock solutions exposed to lipases immobilized on beads, surfactant quantitation by UPLC-ELSD (Example 2); settings: over the course of 18 days
From the text: Materials: Surfactants investigated in this study included PFA and polysorbates. Two PFA, Brij® 35 (L23) (Product #ET47399, CAS #9002-92-0) and Brij® 98 (020) (Product #ET40118, CAS #9004-98-2), were obtained from Croda International PLC (East Yorkshire, UK). Polysorbate 20 (Product #4116-04, CAS #9005-64-5) and polysorbate 80 (Product #4117-03, CAS #9005-65-6) were obtained from JT Baker (Center Valley, Pennsylvania). Lipase immobilized on polystyrene beads at 2.0 U/mg (Product Number 73940) was obtained from Fluka (Denmark). All monoclonal antibodies (mAbs) were produced or acquired by Janssen Supply Chain, LLC (Horsham, Pennsylvania) and purified in a series of chromatography and filtration steps.
Surfactant Quantitation. Surfactant quantitation of samples was performed using UPLC with evaporative light scattering detection. Duplicate 7.5 μL sample injections were injected into an OASIS MAX column (30 μm, 2.1×20 mm). The mobile phase consisted of a gradient of milliQ water and isopropanol with 2% formic acid. The integrated area for each sample's eluting peak was assessed against a surfactant standard curve created from serial dilution of each surfactant type ranging from 0.005% (w/v) to 0.08% (w/v).
Stock solutions of PFA and polysorbate surfactants were exposed to lipases immobilized on beads over a period of 18 days. Surfactant levels in the solutions were quantified periodically over the course of testing to determine the extent of lipase-mediated degradation.

IgG4 mAb C = assay: SEC percent monomer, formulation spiked with lipase-exposed surfactant (Example 3), mAb C; settings: 0.01% surfactant exposed to lipase; mAb C (FIG. 3C)
Experimental: as §1
(§2) Further studies evaluated the ability of PFA and polysorbate formulations to retain their protective effects after exposures of the surfactants to lipase. The mAb formulations were spiked with surfactants that had been exposed to lipase-beads and then subjected to shaking stress or thermal stress followed by shaking. The mAb formulations were then evaluated for soluble aggregation and particulate matter using SEC and DLS, respectively.

bispecific mAb A = assay: SEC percent monomer, formulation spiked with lipase-exposed surfactant (Example 3), mAb A; settings: mAb A (FIG. 3A)
Experimental: as §1, §2

percent monomer content (SEC) [1]	surfactant level in stock solutions exposed to lipases [2]	percent monomer content (SEC) versus control formulation without any surfactant (IgG4 mAb C)	percent monomer content (SEC) versus control formulation without any surfactant (bispecific mAb A; 0.01% surfactant exposed to lipase)	percent monomer content (SEC) versus control formulation without any surfactant (bispecific mAb A; 0.04% surfactant exposed to lipase)	Substance
retain higher percent monomer content	remained relatively constant				polyoxyethylene (20) oleyl ether [Brij® 020]
retain higher percent monomer content	remained relatively constant				polyoxyethylene (23) lauryl ether [Brij® L23]
	declined significantly	lower percent monomer content			polysorbate 20 [PS20]
	declined significantly		lower percent monomer content	lower percent monomer content	polysorbate 80 [PS80]
